Data taken from patent US12058988B2, “Warm water immersion-based hatching method of silkworm eggs” (Sericulture and Agri-Food Research Institute, Guangdong …, priority 2021, dated 2024).
Like-named read-outs stand apart in the source and are kept apart here.

Legend:
[1] = test system: silkworm eggs; settings: cited from earlier work; for hatching rate: silkworm eggs 20 h after oviposition, 15% acid treatment (Manqiao Jiang et al.)
[2] = test system: silkworm eggs of a "Liangguang 2" quaternary hybrid; experiment: Feeding results of larvae after treating silkworm eggs by warm water hatching and hydrochloric acid hatching; format: in vivo, Bombyx mori; settings: eggs treated 18 h after laying, larvae fed after hatching
Experimental: 18 h after laying eggs, silkworm eggs of a “Liangguang 2” quaternary hybrid were treated in a hydrochloric acid solution (at a specific gravity of 1.075, 46° C.) for 5 min, followed by taking out for air-drying, incubation and hatching. Statistics was conducted on cocooning rate, whole cocoon weight, cocoon shell weight, cocoon shell rate and 10,000-silkworm cocoon weight.
18 h after laying eggs, silkworm eggs of a “Liangguang 2” quaternary hybrid were treated in a 50° C. warm aqueous solution (containing 0.2 g/L of chitosan, 0.1 g/L of hydroxypropyl cellulose and 0.1 g/L of γ-aminobutyric acid) for 20 s, followed by taking out for air-drying, incubation and hatching. Statistics was conducted on cocooning rate, whole cocoon weight, cocoon shell weight, cocoon shell rate and 10,000-silkworm cocoon weight.

[3] = test system: silkworm eggs; experiment: Practical hatching rate of silkworm eggs after immersion treatment; format: in vivo, Bombyx mori; settings: "Liangguang 2" quaternary hybrid, 18 h after laying, specific gravity 1.075, 46° C. for 5 min
Experimental: After laying eggs, “Liangguang 2” silkworm eggs were placed at 25° C.±1° C. and a humidity of 80%±5% for protection; the silkworm eggs with egg ages of 11 h, 13 h, 15 h, 17 h, 19 h, 21 h and 23 h were placed in an aqueous solution (containing 0.2 g/L of chitosan, 0.1 g/L of hydroxypropyl cellulose and 0.1 g/L of γ-aminobutyric acid) and then treated at 50° C. for 15 s, followed by taking out and air-drying for 25 min; and the silkworm eggs were subjected to incubation and hatching, wherein 3 replicates were set for each treatment. A practical hatching rate was calculated according to formula I, and an egg age-practical hatching rate curve was drawn. Practical hatching rate (%)=number of newly-hatched silkworms in two days/the total number of good eggs×100% formula I
17 h after laying eggs, silkworm eggs of a “Liangguang 2” quaternary hybrid were treated in a 50° C. aqueous solution (containing 0.1 g/L of chitosan, 0.2 g/L of hydroxypropyl cellulose and 0.05 g/L of γ-aminobutyric acid) for 20 s, followed by taking out for air-drying, incubation and hatching.
A practical hatching rate was counted. […]

C[S+](C)[O-] [dimethyl sulfoxide]
effect of preventing diapause ([1]; Yamamoto et al.): 78%

Cl [hydrochloric acid]
10,000-silkworm cocoon weight [2]: 13.05 kg | Cocoon shell rate [2]: 19.42% | Cocoon shell weight [2]: 0.26 g | Cocooning rate [2]: 96.27% | Whole cocoon weight [2]: 1.35 g | hatching rate [3]: 95.86%

O=P(O)(O)O [phosphoric acid]
hatching rate [1]: relatively low hatching rate

O=[N+]([O-])O [nitric acid]
hatching rate [1]: not less than 95%

CC(=O)O [acetic acid]
hatching rate [1]: relatively low hatching rate
